Where “and” joins values, the source holds several entries; their conditions need not be identical. Equal entries are not always repeated. ± gives the expanded uncertainty stated by the source.
What was measured:
[1] = xn = mol fraction of the nth substance listed; details: 101 kPa, Liquid, x2 = 0; for speed of sound: Sing-around technique in a fixed-path interferometer
[2] = refractive index (Na D-line) (dimensionless); xn = mol fraction of the nth substance listed; details: 101 kPa, Liquid, Standard Abbe refractometry, x2 = 0
[3] = refractive index (Na D-line) (dimensionless); details: 101.33 kPa, Liquid, Standard Abbe refractometry
[4] = 101 kPa, Liquid; for speed of sound: Sing-around technique in a fixed-path interferometer

SMILES | speed of sound ([1]; 298.15 K) | mass density ([1]; 298.15 K) | speed of sound ([1]; 303.15 K) | mass density ([1]; 303.15 K) | speed of sound ([1]; 308.15 K) | mass density ([1]; 308.15 K) | refractive index ([2]; 298.15 K) | refractive index ([2]; 303.15 K) | refractive index ([2]; 308.15 K) | refractive index ([3]; 298.15 K) | refractive index ([3]; 303.15 K) | refractive index ([3]; 308.15 K) | mass density ([4]; 298.15 K) | speed of sound ([4]; 298.15 K) | mass density ([4]; 303.15 K) | speed of sound ([4]; 303.15 K) | mass density ([4]; 308.15 K) | speed of sound ([4]; 308.15 K)
CCCCCCCCCCO [decan-1-ol] + COc1ccccc1 | 1379.4 ± 1.1 m/s | 826.526 ± 0.55 kg/m3 | 1362.3 ± 1.1 m/s | 823.101 ± 0.56 kg/m3 | 1345.6 ± 1.1 m/s | 819.671 ± 0.57 kg/m3 | 1.43456 ± 0.00054 | 1.43256 ± 0.00054 | 1.4305 ± 0.00055 |  |  |  |  |  |  |  |  | 
CCCCCCCCCCO [decan-1-ol] + Cc1ccccc1O | 1379.4 ± 1.1 m/s | 826.526 ± 0.55 kg/m3 | 1362.3 ± 1.1 m/s | 823.101 ± 0.56 kg/m3 | 1345.6 ± 1.1 m/s | 819.671 ± 0.57 kg/m3 | 1.43456 ± 0.00052 | 1.43266 ± 0.00054 | 1.4305 ± 0.00056 |  |  |  |  |  |  |  |  | 
Cc1cccc(O)c1 [3-methylphenol] |  |  |  |  |  |  |  |  |  | 1.538 ± 0.0007 | 1.535 ± 0.0007 | 1.532 ± 0.0007 | 1030.05 ± 0.25 kg/m3 | 1480.9 ± 1 m/s | 1026.09 ± 0.24 kg/m3 | 1465.2 ± 1 m/s | 1022.12 ± 0.23 kg/m3 | 1449.6 ± 1 m/s
COc1ccccc1 [anisole] |  |  |  |  |  |  |  |  |  | 1.51495 ± 0.00041 | 1.51395 ± 0.00054 | 1.51095 ± 0.0007 | 989.145 ± 0.25 kg/m3 | 1406.9 ± 1.1 m/s | 984.433 ± 0.26 kg/m3 | 1386.8 ± 1.1 m/s | 979.712 ± 0.27 kg/m3 | 1366.5 ± 1.1 m/s
Cc1ccc(O)cc1 [4-methylphenol] |  |  |  |  |  |  |  |  |  | 1.537 ± 0.00072 | 1.534 ± 0.00072 | 1.531 ± 0.00072 | 1030.14 ± 0.49 kg/m3 | 1486.4 ± 1.4 m/s | 1026.28 ± 0.48 kg/m3 | 1470.7 ± 1.4 m/s | 1022.38 ± 0.47 kg/m3 | 1455 ± 1.4 m/s
Cc1ccccc1O [2-methylphenol] |  |  |  |  |  |  |  |  |  | 1.544 ± 0.0007 | 1.54099 ± 0.00078 | 1.53699 ± 0.00087 | 1042.32 ± 0.27 kg/m3 | 1504.6 ± 1.1 m/s | 1036.94 ± 0.26 kg/m3 | 1487.4 ± 1.1 m/s | 1031.55 ± 0.25 kg/m3 | 1470.3 ± 1 m/s
CCCCCCCCCCO [decan-1-ol] + Cc1ccc(O)cc1 | 1379.4 ± 1.1 m/s | 826.526 ± 0.55 kg/m3 | 1362.3 ± 1.1 m/s | 823.101 ± 0.56 kg/m3 | 1345.6 ± 1.1 m/s | 819.671 ± 0.57 kg/m3 | 1.43456 ± 0.00054 | 1.43256 ± 0.00054 | 1.4305 ± 0.00055 |  |  |  |  |  |  |  |  | 
CCCCCCCCCCO [decan-1-ol] + Cc1cccc(O)c1 | 1379.4 ± 1.1 m/s | 826.526 ± 0.55 kg/m3 | 1362.3 ± 1.1 m/s | 823.101 ± 0.56 kg/m3 | 1345.6 ± 1.1 m/s | 819.671 ± 0.57 kg/m3 | 1.43456 ± 0.00054 | 1.43256 ± 0.00054 | 1.4305 ± 0.00055 |  |  |  |  |  |  |  |  | 
CCCCCCCCCCO [decan-1-ol] |  |  |  |  |  |  |  |  |  | 1.43456 ± 0.00054 | 1.43256 ± 0.00054 and 1.43266 ± 0.00054 | 1.4305 ± 0.00055 | 826.526 ± 0.55 kg/m3 | 1379.4 ± 1.1 m/s | 823.101 ± 0.56 kg/m3 | 1362.3 ± 1.1 m/s | 819.671 ± 0.57 kg/m3 | 1345.6 ± 1.1 m/s
